Reference: patent US11639371B2, “Peptidylic inhibitors of nucleolin (NCL) targeting CAG-repeat RNA toxicity and methods for reducing polyQ-mediated toxicity in polyQ diseases” (The Chinese University of Hong Kong, priority 2016, dated 2023)
Peptide text beside a SMILES is read from it.

Assays:
[1] = system: primary rat cortical neurons; assay: Cytotoxicity test on primary rat cortical neurons; settings: wild-type primary rat cortical neurons
[2] = system: pre-45s rRNA in EGFPCAG78 RNA expressing-HEK293 cells; assay: pre-45s rRNA expression by real-time PCR in EGFPCAG78 RNA-expressing HEK293 cells; assay type: cell-based, Human; settings: expanded CAG-repeat RNA-expressing HEK293 cells
Experimental: (§1) RNA was extracted from cells by Trizol reagent (Life Technologies), and 1 μg of purified RNA was then used for reverse-transcription using the ImPromII™ Reverse Transcription System (Promega). Random hexamer (Roche) was used as primers in reverse transcription. Taqman gene expression assays were performed on an ABI 7500 Real-time PCR system and data were analyzed as previously described^10. The following probes were used: pre-45s rRNA (Assay ID: AILJIZM), actin (Assay ID: Hs99999903_m1), pre-rRNA (Assay ID: AIMSG5U) and GAPDH for Drosophila (Assay ID: Dm01841186).

[3] = system: pre-rRNA in DsRedCAG100 flies; assay: pre-rRNA expression by real-time PCR in DsRedCAG100 flies; assay type: in vivo; settings: DsRedCAG100 Drosophila model, RNA toxicity only
Experimental: as §1
(§2) For pseudopupil assay, flies were raised at 21.5° C. on cornmeal medium supplemented with dry yeast. For climbing ability assay, lifespan analysis as well as external eye assay, flies were raised at 25° C. on cornmeal medium supplemented with dry yeast. We usually feed flies at larval stage unless otherwise indicated. For larval stage treatment, third instar larvae were fed with different concentration of TAT-P3L dissolved in 2% sucrose solution for 2 h and then continued to culture in standard fly food. For adult stage treatment, 5 or 10 day-old adult flies were starved for 8 h and then fed with different concentrations of TAT-P3L dissolved in 2% sucrose solution overnight. After treatment, flies were cultured in standard fly food.

[4] = system: EGFPCAG78-expressing HEK293 cells; assay: LDH cytotoxicity assay, EGFPCAG78 (only RNA toxicity); assay type: cell-based, Human
Experimental: (§3) Human embryonic kidney 293 cells were seeded on a 24-well plate at a density of 0.5×10^5, and pcDNA3.1-MJDCAG27/78 or, pEGFPCAG78 or, pcDNA3.1-SCA2CAG22/72/104 or pEGFP-trHttCAG23/73/145 construct was used to transfect the cells. Lactate dehydrogenase enzyme activity in the cell culture medium was measured 72 h post-transfection and drugs treatment using the Cytotox 96 non-radioactive cytotoxicity assay (Promega).

[5] = system: MJDCAG78-expressing HEK293 cells; assay: LDH cytotoxicity assay, MJD disease cell model; assay type: cell-based, Human; settings: MJDCAG78-expressing HEK293, CAG-repeat RNA and polyQ protein
Experimental: as §3

[6] = system: SCA2CAG72/104-expressing HEK293 cells; assay: LDH cytotoxicity assay, SCA2 disease cell model; assay type: cell-based, Human; settings: SCA2CAG72/104-expressing HEK293, CAG-repeat RNA and polyQ protein
Experimental: as §3

[7] = system: trHttCAG72/145-expressing HEK293 cells; assay: LDH cytotoxicity assay, Htt disease cell model; assay type: cell-based, Human; settings: trHttCAG72/145-expressing HEK293, CAG-repeat RNA and polyQ protein
Experimental: as §3

[8] = system: DsRedCAG100 flies; assay: Pseudopupil assay, DsRedCAG100 flies; assay type: in vivo, Drosophila
Experimental: as §2
(§4) Pseudopupil assay^18 was performed on 12 day-old adult flies except for Httexon1CAG93 which 1 day-old adult flies were used for the assay. Images were captured by SPOT Insight CCD camera controlled by the SPOT Advanced software (Diagnostic instruments Inc.). External eye assay was performed on 1 day-old adult of CTG480 flies and 2 day-old adult of CGG90 flies using an Olympus SZX-12 stereomicroscope. […] Fly climbing ability was analyzed by negative geotaxis. […] After 1 h recovery, flies were banged to the bottom, and then scored for climbing ability as the percentage of flies remaining at the bottom (<2 cm) at 25s. […]

[9] = system: flMJDCAG84 flies; assay: Pseudopupil assay, flMJDCAG84 flies; assay type: in vivo, Drosophila; settings: MJD disease model
Experimental: as §2, §4

[10] = system: Httexon1CAG93 flies; assay: Pseudopupil assay, Httexon1CAG93 flies; assay type: in vivo, Drosophila; settings: Htt disease model, 1 day-old adults
Experimental: as §2, §4

[11] = system: DsRedCAG250 flies; assay: Climbing ability assay, DsRedCAG250 flies; assay type: in vivo, Drosophila
Experimental: as §2, §4

[12] = system: DsRedCAG250 flies; assay: Lifespan analysis, DsRedCAG250 flies; assay type: in vivo, Drosophila
Experimental: as §2, §4

[13] = system: CTG480 flies; assay: External eye assay, CTG480 flies (Myotonic dystrophy 1); assay type: in vivo, Drosophila
Experimental: as §2, §4

[14] = system: CGG90 flies; assay: External eye assay, CGG90 flies (Fragile X syndrome); assay type: in vivo, Drosophila
Experimental: as §2, §4

| SMILES | concentration with no observed cytotoxicity (viability not compromised) [1] | pre-45s rRNA transcription level [2] | pre-rRNA expression level [3] | suppression of EGFPCAG78 RNA-induced cell death ([4]; LDH enzyme activity, 72 h post-transfection and treatment) | IC50 ([4]; concentration that reduced LDH enzyme activity by 50% vs untreated control, EGFPCAG78 HEK293, read-out: IC50 in inhibiting expanded CAG-repeat RNA-induced cell death) | suppression of cell death [5] | suppression of cell death [6] | suppression of cell death [7] | suppression of neurodegeneration compared with TAT-P3 ([8]; 50 uM concentration) | inhibition of neurodegeneration (retinal degeneration, pseudopupil assay) ([8]; larval feeding, 12 day-old adults) | suppression of retinal degeneration (pseudopupil assay) [9] | suppression of retinal degeneration (pseudopupil assay) [10] | climbing ability ([11]; larval treatment, 5, 10 and 15 day-old adult DsRedCAG250 flies) | climbing ability ([11]; late adult stage treatment, DsRedCAG250 flies already showing degeneration) | lifespan [12] | effect on degenerative phenotype (specificity) [13] | effect on degenerative phenotype (specificity) [14] |
| --- | --- | --- | --- | --- | --- | --- | --- | --- | --- | --- | --- | --- | --- | --- | --- | --- | --- |
| CC[C@H](C)[C@H](NC(=O)CNC(=O)[C@H](CCCCN)NC(=O)[C@H](CO)NC(=O)[C@H](CCCCN)NC(=O)CNC(=O)[C@H](CC(=O)O)NC(=O)[C@H](CCCCN)NC(=O)[C@H](CO)NC(=O)[C@@H](NC(=O)[C@H](CC(C)C)NC(=O)[C@H](CCCNC(=N)N)NC(=O)[C@@H](NC(=O)[C@H](CCC(=O)O)NC(=O)[C@H](C)N)[C@@H](C)CC)C(C)C)C(=O)N[C@@H](C)C(=O)N[C@@H](Cc1ccc(O)cc1)C(=O)N[C@H](C(=O)N[C@@H](CCC(=O)O)C(=O)N[C@@H](Cc1ccccc1)C(=O)N[C@@H](CCCCN)C(=O)O)[C@@H](C)CC [P3L] (H-AEIRLVSKDGKSKGIAYIEFK-OH) | up to 25 μM | – | – | – | – | – | – | – | – | – | – | – | – | – | – | – | – |
| CC[C@H](C)[C@H](NC(=O)CNC(=O)[C@H](CCCCN)NC(=O)[C@H](CO)NC(=O)[C@H](CCCCN)NC(=O)CNC(=O)[C@H](CC(=O)O)NC(=O)[C@H](CCCCN)NC(=O)[C@H](CO)NC(=O)[C@@H](NC(=O)[C@H](CC(C)C)NC(=O)[C@H](CCCNC(=N)N)NC(=O)[C@@H](NC(=O)[C@H](CCC(=O)O)NC(=O)[C@H](C)NC(=O)[C@H](CCCNC(=N)N)NC(=O)[C@H](CCCNC(=N)N)NC(=O)[C@H](CCCNC(=N)N)NC(=O)[C@H](CCC(N)=O)NC(=O)[C@H](CCCNC(=N)N)NC(=O)[C@H](CCCNC(=N)N)NC(=O)[C@H](CCCCN)NC(=O)[C@H](CCCCN)NC(=O)[C@H](CCCNC(=N)N)NC(=O)CNC(=O)[C@@H](N)Cc1ccc(O)cc1)[C@@H](C)CC)C(C)C)C(=O)N[C@@H](C)C(=O)N[C@@H](Cc1ccc(O)cc1)C(=O)N[C@H](C(=O)N[C@@H](CCC(=O)O)C(=O)N[C@@H](Cc1ccccc1)C(=O)N[C@@H](CCCCN)C(=O)O)[C@@H](C)CC [TAT-P3L] (H-YGRKKRRQRRRAEIRLVSKDGKSKGIAYIEFK-OH) | up to 25 μM | restore the pre-45s rRNA transcription level | restore pre-rRNA expression level | significantly suppressed | 700 nM | concentration-dependent suppression in cell death | concentration-dependent suppression in cell death | concentration-dependent suppression in cell death | suppressed neurodegeneration more effectively than TAT-P3 | concentration-dependent inhibition of neurodegeneration | suppressed retinal degeneration | suppressed retinal degeneration | ameliorated the climbing ability | dose-dependent improvement of the climbing ability | extended the lifespan | did not mitigate the phenotypes | did not mitigate the phenotypes |
